Data set [1] in a line: Measurement of LogP values by HPLC on reversed phase columns (EEC directive 79/831 Annex V.A8), methods [a], [b], [c]. It is filed as physicochemical. The settings on record: HPLC on reversed phase column, method [a]; read-out: Log P. In outline: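 Log P determined by reversed-phase HPLC following EEC directive 79/831 Annex V.A8. Multiple values within one method are listed joined by "+". Lambda-max taken from UV spectra over 200–400 nm at chromatographic peak maxima.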

For data set [2], the system named is Colletotrichum lindemuthianum. The data set is described as follows: Colletotrichum lindemuthianum in vitro cell test. It is filed as cell-based. As to conditions: 144 h, 20 ppm of active ingredient, liquid culture, 6 days incubation, read-out: efficacy (inhibition of fungal growth). Here is the method: (§1) Example: Colletotrichum lindemuthianum In Vitro Cell Test • Solvent: DMSO • Culture medium: 14.6 g anhydrous D-glucose (VWR), 7.1 g Mycological Peptone (Oxoid), 1.4 g granulated Yeast Extract (Merck), QSP 1 liter • Inoculum: spores suspension Fungicides were solubilized in DMSO and the solution used to prepare the required range of concentrations. The final concentration of DMSO used in the assay was ≤1%. A spore suspension of C. lindemuthianum was prepared and diluted to the desired spore density. Fungicides were evaluated for their ability to inhibit spores germination and mycelium growth in liquid culture assay. The compounds were added in the desired concentration to the culture medium with spores. After 6 days incubation, fungi-toxicity of compounds was determined by spectrometric measurement of mycelium growth. Inhibition of fungal growth was determined by comparing the absorbance values in wells containing the fungicides with the absorbance in control wells without fungicides.

Data set [3] concerns Colletotrichum lindemuthianum. The data set is described as follows: In vivo preventive test on Colletotrichum lindemuthianum (leaf spot on bean). The settings on record: 168 h, 500 ppm of active ingredient, preventive spray on bean, evaluated 7 days after inoculation, read-out: efficacy. Here is the method: Example: In Vivo Preventive Test on Colletotrichum lindemuthianum (Leaf Spot on Bean)
(§2) • Solvent: 5% by volume of Dimethyl sulfoxide • 10% by volume of Acetone • Emulsifier: 1 μl of Tween® 80 per mg of active ingredient
(§3) The active ingredients were made soluble and homogenized in a mixture of Dimethyl sulfoxide/Acetone//Tween®80 and then diluted in water to the desired concentration.
The young plants of bean were treated by spraying the active ingredient prepared as described above. Control plants were treated only with an aqueous solution of Acetone/Dimethyl sulfoxide/Tween® 80.
After 24 hours, the plants were contaminated by spraying the leaves with an aqueous suspension of Colletotrichum lindemuthianum spores. The contaminated bean plants were incubated for 24 hours at 20° C. and at 100% relative humidity and then for 6 days at 20° C. and at 90% relative humidity.
The test was evaluated 7 days after the inoculation. 0% means an efficacy which corresponds to that of the control plants while an efficacy of 100% means that no disease was observed.

Another data set relates to Botrytis cinerea. Description: In vivo preventive test on Botrytis cinerea (grey mould). The settings on record: 500 ppm of active ingredient, preventive spray on gherkin or cabbage, evaluated 4 to 5 days after inoculation, read-out: efficacy. As to the method:
Example: In Vivo Preventive Test on Botrytis cinerea (Grey Mould)
as §2, §3
The young plants of gherkin or cabbage were treated by spraying the active ingredient prepared as described above. Control plants were treated only with an aqueous solution of Acetone/Dimethyl sulfoxide/Tween® 80.
After 24 hours, the plants were contaminated by spraying the leaves with an aqueous suspension of Botrytis cinerea spores. The contaminated gherkin plants were incubated for 4 to 5 days at 17° C. and at 90% relative humidity. The contaminated cabbage plants were incubated for 4 to 5 days at 20° C. and at 100% relative humidity.
The test was evaluated 4 to 5 days after the inoculation. 0% means an efficacy which corresponds to that of the control plants while an efficacy of 100% means that no disease was observed.

The subject of data set [4] is Septoria tritici. Description: In vivo preventive test on Septoria tritici (leaf spot on wheat). As to conditions: Zymoseptoria tritici, in Triticum aestivum; 500 ppm of active ingredient; preventive spray on wheat; evaluated 19 days after inoculation; read-out: efficacy. Here is the method:
Example: In Vivo Preventive Test on Septoria tritici (Leaf Spot on Wheat)
as §2, §3
The young plants of wheat were treated by spraying the active ingredient prepared as described above. Control plants were treated only with an aqueous solution of Acetone/Dimethyl sulfoxide/Tween®80.
After 24 hours, the plants were contaminated by spraying the leaves with an aqueous suspension of Septoria tritici spores. The contaminated wheat plants were incubated for 72 hours at 17° C. and at 100% relative humidity and then for 15 days at 20° C. and at 90% relative humidity.
The test was evaluated 19 days after the inoculation. 0% means an efficacy which corresponds to that of the control plants while an efficacy of 100% means that no disease was observed.

The next data set deals with Alternaria alternata. Description: Alternaria alternata in vitro cell test. The format is cell-based. The settings on record: 120 h, 20 ppm of active ingredient, liquid culture, 5 days incubation, read-out: efficacy (inhibition of fungal growth). Here is the method:
as §1, with “Example: Alternaria alternata” for “Example: Colletotrichum lindemuthianum”, “of A. alternata” for “of C. lindemuthianum”, “inhibit spore” for “inhibit spores”, “After 5” for “After 6”

The test system of another data set is Alternaria brassicae. Description: In vivo preventive test on Alternaria brassicae (leaf spot on radish or cabbage). The settings on record: 144 h, 500 ppm of active ingredient, preventive spray on radish or cabbage, evaluated 6 days after inoculation, read-out: efficacy. Here is the method:
Example: In Vivo Preventive Test on Alternaria brassicae (Leaf Spot on Radish or Cabbage)
as §2, §3
The young plants of radish or cabbage were treated by spraying the active ingredient prepared as described above. Control plants were treated only with an aqueous solution of Acetone/Dimethyl sulfoxide/Tween® 80.
After 24 hours, the plants were contaminated by spraying the leaves with an aqueous suspension of Alternaria brassicae spores. The contaminated radish or cabbage plants were incubated for 6 days at 20° C. and at 100% relative humidity.
The test was evaluated 6 days after the inoculation. 0% means an efficacy which corresponds to that of the control plants while an efficacy of 100% means that no disease was observed.

The test system of a further data set is Sphaerotheca fuliginea. The data set is described as follows: In vivo preventive test on Sphaerotheca fuliginea (powdery mildew on cucurbits). The settings on record: Podosphaera fuliginea, 192 h; 500 ppm of active ingredient; preventive spray on gherkin; evaluated 8 days after inoculation; read-out: efficacy. Here is the method: Example: In Vivo Preventive Test on Sphaerotheca fuliginea (Powdery Mildew on Cucurbits)
as §2, §3
The young plants of gherkin were treated by spraying the active ingredient prepared as described above. Control plants were treated only with an aqueous solution of Acetone/Dimethyl sulfoxide/Tween® 80.
After 24 hours, the plants were contaminated by spraying the leaves with an aqueous suspension of Sphaerotheca fuliginea spores. The contaminated gherkin plants were incubated for 8 days at 20° C. and at 70-80% relative humidity.
The test was evaluated 8 days after the inoculation. 0% means an efficacy which corresponds to that of the control plants while an efficacy of 100% means that no disease was observed.

Another data set has as its system Pyrenophora teres. The data set is described as follows: In vivo preventive test on Pyrenophora teres (net blotch on barley). As to conditions: 240 h, 500 ppm of active ingredient, preventive spray on barley, evaluated 10 days after inoculation, read-out: efficacy. Here is the method:
Example: In Vivo Preventive Test on Pyrenophora teres (Net Blotch on Barley)
as §2, §3
The young plants of barley were treated by spraying the active ingredient prepared as described above. Control plants were treated only with an aqueous solution of Acetone/Dimethyl sulfoxide/Tween®80.
After 24 hours, the plants were contaminated by spraying the leaves with an aqueous suspension of Pyrenophora teres spores. The contaminated barley plants were incubated for 48 hours at 20° C. and at 100% relative humidity and then for 8 days at 20° C. and at 70-80% relative humidity.
The test was evaluated 10 days after the inoculation. 0% means an efficacy which corresponds to that of the control plants while an efficacy of 100% means that no disease was observed.

Data set [5] concerns Septoria tritici. Description: Septoria tritici in vitro cell test. It is filed as cell-based. As to conditions: Zymoseptoria tritici, 168 h; 20 ppm of active ingredient; liquid culture, 7 days incubation; read-out: efficacy (inhibition of fungal growth). Here is the method:
Example: Septoria tritici In Vitro Cell Test • Solvent: DMSO • Culture medium: 14.6 g anhydrous D-glucose (VWR), 7.1 g Bacteriological Peptone (Oxoid), • 1.4 g granulated Yeast Extract (Merck), QSP 1 liter • Inoculum: spore suspension Fungicides were solubilized in DMSO and the solution used to prepare the required range of concentrations. The final concentration of DMSO used in the assay was ≤1%. A spore suspension of Septoria tritici was prepared and diluted to the desired spore density. Fungicides were evaluated for their ability to inhibit spore germination and mycelium growth in liquid culture assay. The compounds were added in the desired concentration to the culture medium with spores. After 7 days incubation, fungi-toxicity of compounds was determined by spectrometric measurement of mycelium growth. Inhibition of fungal growth was determined by comparing the absorbance values in wells containing the fungicides with the absorbance in control wells without fungicides.

A further data set is described as follows: LogP determination. As to conditions: reversed phase HPLC column; method [a]. The format is physicochemical.

Take `CC(=O)c1cc(C2=NOCC(Cc3ccc(C)cc3C)N2)c(Oc2cccc(C(F)(F)F)c2)nn1` (racemic) [I-042, 1-[5-[rac-5-[(2,4-dimethylphenyl)methyl]-5,6-dihydro-4H-1,2,4-oxadiazin-3-yl]-6-[3-(trifluoromethyl)phenoxy]pyridazin-3-yl]ethanone]: in data set [1], the chromatographic logP worked out at 4.27. In addition, the inhibition at 20 ppm (in data set [2]; in the data set with Alternaria alternata) was 90 to 100% each time. In addition, the pest or weed control at 500 ppm (in data set [3]; with Botrytis cinerea; in the data set on Septoria tritici [4]; in the data set on Alternaria brassicae; in the data set on Sphaerotheca fuliginea; in the data set with Pyrenophora teres) was 90 to 100% throughout.

On to `Cc1ccc(CC2CON=C(c3cc(Cl)nnc3Oc3cccc(C(F)(F)F)c3)N2)c(C)c1` (racemic) [I-059, rac-3-[6-chloro-3-[3-(trifluoromethyl)phenoxy]pyridazin-4-yl]-5-[(2,4-dimethylphenyl)methyl]-5,6-dihydro-4H-1,2,4-oxadiazine], for which the inhibition at 20 ppm (in [2]; in the data set with Septoria tritici [5]; with Alternaria alternata) was 90 to 100% in each case. The pest or weed control at 500 ppm (in data set [3]; with Botrytis cinerea; in the data set on Septoria tritici [4]; in the data set with Alternaria brassicae; in the data set on Sphaerotheca fuliginea; in the data set with Pyrenophora teres) was 90 to 100% throughout.

Regarding `Cc1ccc(CC2CON=C(c3c(Oc4cccc(C(F)(F)F)c4)nnc(Cl)c3-c3ccncc3)N2)c(C)c1` (racemic) [I-088, rac-3-[6-chloro-5-(4-pyridyl)-3-[3-(trifluoro-methyl)phenoxy]pyridazin-4-yl]-5-[(2,4-dimethylphenyl)methyl]-5,6-dihydro-4H-1,2,4-oxadiazine], in data set [1], the chromatographic logP was 3.76. Moreover, the inhibition at 20 ppm (in data set [2]; in the data set with Alternaria alternata) was 90 to 100% in each case. Moreover, the pest or weed control at 500 ppm lay in the range of 90 to 100% in data set [3]; 90 to 100% in the data set on Botrytis cinerea; 70 to 79% in the data set on Septoria tritici [4]; 90 to 100% with Alternaria brassicae; 90 to 100% in the data set with Sphaerotheca fuliginea; 90 to 100% with Pyrenophora teres.

As to `COC(=N)c1cc(Cl)nnc1Oc1cccc(C2CC2)c1` [25-01, methyl 6-chloro-3-(3-cyclopropylphenoxy)pyridazine-4-carboximidate], the chromatographic logP in the data set “LogP determination” was 3.08.

For the molecule `COC(=N)c1cc(Cl)nnc1Oc1cccc(C(F)(F)F)c1` [25-02, methyl 6-chloro-3-[3-(trifluoromethyl)phenoxy]pyridazine-4-carboximidate], the chromatographic logP in “LogP determination” was found to be 3.

In the data set “LogP determination”, `Cc1cc(C(N)=NOCC=Cc2ccc3c(ccn3C)c2)c(Oc2cccc(C(F)(F)F)c2)nn1` [30-01, 6-methyl-N′-[3-(1-methylindol-5-yl)allyloxy]-3-[3-(trifluoromethyl)phenoxy]pyridazine-4-carboxamidine] registered a chromatographic logP of 3.92.

As for `Cc1ccc(CC2CON=C(c3cc(C)nnc3Oc3cccc(Cl)c3F)N2)c(Cl)c1` (stereo not drawn) [I-302], the inhibition at 20 ppm (in data set [2]; in the data set on Septoria tritici [5]; with Alternaria alternata) was 90 to 100% each time. Besides, the pest or weed control at 500 ppm (in [3]; in the data set with Botrytis cinerea; in the data set with Septoria tritici [4]; in the data set with Alternaria brassicae; in the data set on Sphaerotheca fuliginea; with Pyrenophora teres) was 90 to 100% each time.

The values are drawn from US12501900B2, “Heterocyclyl pyridazine as fungicidal compounds” (Bayer Aktiengesellschaft, priority 2018, dated 2025).
